Reference: patent publication US20230295133A1, “PROCESS FOR PREPARING A COMPOUND USEFUL TO TREAT MYCOSES” (PULMOCIDE LIMITED, priority 2014, published 2023)
In brackets after ≈: the same amount, converted by molar mass. Like-named read-outs stand apart in the source and are kept apart here.

Assays:
[1] = tested on: aspergillus fumigatus infection of BEAS2B cells; experiment: Aspergillus fumigatus infection of bronchial epithelial cells (GM in supernatant); type: cell-based; details: bronchial epithelial cells infected with Aspergillus fumigatus; read-out: MIC50 Infection of BEAS2B cells
In short: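 BEAS2B cells in 10% FBS RPMI-1640 pre-treated with compound (0.5% DMSO final) for 1 hr at 35 °C, then infected with A. fumigatus conidia (0.5×10^5/ml suspension) for 24 hr at 35 °C. Galactomannan in 1:20-diluted supernatant measured by Platelia GM-EIA; IC50 from percent-inhibition concentration-response curves.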

[2] = tested on: Aspergillus fumigatus NCPF7100; experiment: Broth microdilution assay (modified EUCAST); type: cell-based; details: Aspergillus fumigatus, NCPF7100, read-out: MIC75 against Aspergillus fumigatus isolate NCPF7100
[3] = Cell viability: resazurin assay; type: cell-based, human; details: human, BEAS2B cells; n = 3-5
In short: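 BEAS2B cells in RPMI-LHC8, exposed to compound for 1 day at 37 °C (0.5% DMSO final), then resazurin added for a further 4 h. Fluorescence (ex 545/em 590 nm) gives % viability loss vs 0.5% DMSO vehicle; CC50 from concentration-response curve.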

[4] = tested on: aspergillus fumigatus (ATCC 13073 [strain: NIH 5233]); experiment: In vivo anti-fungal activity, prophylactic and therapeutic treatment of infected immunocompromised neutropenic mice; set-up: species or system A/J mice; details: for % Inhibition versus Infected Controls, GM in BALF / % Inhibition versus Infected Controls, GM in serum / % Inhibition versus Infected Controls, Lung Fungal Load: prophylactic treatment (days 0, 1, 2 and 3); for % Inhibition versus Infected Control, GM in BALF / % Inhibition versus Infected Control, GM in serum / % Inhibition versus Infected Control, Lung Fungal Load: therapeutic treatment (days 1, 2 and 3)
[5] = tested on: Aspergillus fumigatus NCPF2010; experiment: Broth microdilution assay (modified EUCAST); type: cell-based; details: Aspergillus fumigatus
In short: (§1)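 Spores from 3-day Sabouraud cultures (working suspension 2 × 10^5 spores/mL) were added to an equal volume of RPMI-1640 (2 mM L-glutamine, 0.5% BSA, 2% glucose, 0.165 M MOPS, pH 7) containing compound, in quadruplicate. After 48 hr at 35 °C, OD530 gave percent inhibition. MIC50, MIC75 and MIC90 came from concentration-response curves.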

[6] = tested on: Aspergillus fumigatus NCPF7099; experiment: Broth microdilution assay (modified EUCAST); type: cell-based; details: Aspergillus fumigatus, NCPF7099, n = 3, read-out: MIC75 against Aspergillus fumigatus isolate NCPF7099
In short: as §1

[7] = tested on: Aspergillus fumigatus L98H (TR34/L98H); experiment: Broth microdilution assay (modified EUCAST); type: cell-based; details: Aspergillus fumigatus, read-out: MIC75 against Aspergillus fumigatus isolate L98H
In short: as §1

[8] = tested on: Chaectomium globosum ATCC44699; experiment: Fungus panel screening, CLSI broth microdilution; type: cell-based
Description: Fungus panel screening was conducted by Eurofins Panlabs Inc. The MIC and MIC50 values of the test articles were determined following the guidelines of the Clinical and Laboratory Standards Institute, broth microdilution methods for yeast (CLSI M27-A2), (CLSI, 2002) and for filamentous fungi (CLSI M38-A), (CLSI, 2008).

[9] = tested on: aspergillus fumigatus (ATCC 13073 [strain: NIH 5233]); experiment: Survival of severely immunosuppressed neutropenic infected mice, monotherapy and combination; type: in vivo, A/J mice; details: Example 1 0.4 mg/mL (in); Posaconazole 1 mg/kg (po); once daily days 1-6
Description: On day 0, animals were infected intranasally with 35 µL of the spore suspension (1.67 × 10^8 spores/mL in physiological saline) of aspergillus fumigatus (ATCC 13073 [strain: NIH 5233]). Compound Example (I), prepared as a suspension in isotonic saline (0.4 mg/mL), was dosed once daily by an intra-nasal injection (35 µL/mouse) on days 1-6 after infection. Posaconazole (1 mg/kg) was given orally once daily on days 1-6 after infection. Body weight and survival were monitored daily up to day 7.

[10] = NCPF2010, read-out: MIC75 against Aspergillus fumigatus isolate NCPF2010

SMILES | MIC50 [1] [µM] | MIC [2] [µM] | CC50 at 1 day [3] [µM] | % Inhibition versus Infected Controls, GM in BALF ([4]; 0.4 mg/mL) [%] | % Inhibition versus Infected Controls, GM in serum ([4]; 0.4 mg/mL) [%] | % Inhibition versus Infected Controls, Lung Fungal Load ([4]; 0.4 mg/mL) [%] | MIC [5, 10] [µM] | MIC [6] [µM] | MIC [7] [µM] | % Inhibition versus Infected Control, GM in BALF ([4]; 0.08 mg/mL) [%] | % Inhibition versus Infected Control, GM in serum ([4]; 0.08 mg/mL) [%] | % Inhibition versus Infected Control, Lung Fungal Load ([4]; 0.08 mg/mL) [%] | % Inhibition versus Infected Control, GM in BALF ([4]; 0.4 mg/mL) [%] | % Inhibition versus Infected Control, GM in serum ([4]; 0.4 mg/mL) [%] | % Inhibition versus Infected Control, Lung Fungal Load ([4]; 0.4 mg/mL) [%] | further results
Cc1cc(N2CCN(c3ccc(C(=O)Nc4ccc(C#N)cc4F)cc3)CC2)ccc1OC[C@@H]1CO[C@@](Cn2cncn2)(c2ccc(F)cc2F)C1 [Example 23, 4-(4-(4-(((3R, 5R)-5-((1H-1,2,4-triazol-1-yl)methyl)-5-(2,4-difluorophenyl)tetrahydrofuran-3-yl)methoxy)-3-methylphenyl)piperazin-1-yl)-N-(4-cyano-2-fluorophenyl)benzamide] | 0.00337 (≈ 0.00239 µg/mL) | 0.0443 (≈ 0.0314 µg/mL) | > 14.1 | 71 | 79 | 56 | 0.0126 (≈ 0.00892 µg/mL) | 0.0284 (≈ 0.0201 µg/mL) | 0.0602 (≈ 0.0426 µg/mL) |  |  |  |  |  |  | 
Cc1nc(N2CCN(c3ccc(C(=O)Nc4ccc(F)cc4)cc3)CC2)ccc1OC[C@@H]1CO[C@@](Cn2cncn2)(c2ccc(F)cc2F)C1 [Example 3, 4-(4-(5-(((3R,5R)-5-((1H-1,2,4-Triazol-1-yl)Methyl)-5-(2,4-Difluorophenyl)Tetra Hydrofuran-3-yl)Methoxy)-6-Methylpyridin-2-yl)Piperazin-1-yl)-N-(4-Fluorophenyl) Benzamide] | 0.0517 (≈ 0.0353 µg/mL) | 0.0451 (≈ 0.0308 µg/mL) | > 14.6 |  |  |  | 0.018 (≈ 0.0123 µg/mL) | 0.0276 (≈ 0.0189 µg/mL) | 0.033 (≈ 0.0226 µg/mL) | 95 | 92 | 98 | 86 | 89 | 96 | 
Cc1cc(N2CCN(c3ccc(C(=O)Nc4ccc(S(N)(=O)=O)cc4)cc3)CC2)ccc1OC[C@@H]1CO[C@@](Cn2cncn2)(c2ccc(F)cc2F)C1 [Example 19, 4-(4-(4-(((3R, 5R)-5-((1H-1,2,4-triazol-1-yl)methyl)-5-(2,4-difluorophenyl)tetrahydrofuran-3-yl)methoxy)-3-methylphenyl)piperazin-1-yl)-N-(4-sulfamoylphenyl)benzamide] | 0.0172 (≈ 0.0128 µg/mL) | 0.0227 (≈ 0.0169 µg/mL) | > 13.4 | 16 | 30 | 62 | 0.0166 (≈ 0.0123 µg/mL) | 0.0089 (≈ 0.00662 µg/mL) | 0.0577 (≈ 0.0429 µg/mL) |  |  |  |  |  |  | % Inhibition versus Infected Controls, GM in BALF ([4]; 2 mg/mL): 41%; % Inhibition versus Infected Controls, GM in serum ([4]; 2 mg/mL): 47%; % Inhibition versus Infected Controls, Lung Fungal Load ([4]; 2 mg/mL): 74%
N#Cc1cc(N2CCN(c3ccc(C(=O)Nc4ccc(F)cc4)cc3)CC2)ccc1OC[C@@H]1CO[C@@](Cn2cncn2)(c2ccc(F)cc2F)C1 [Example 4, 4-(4-(4-(((3R,5R)-5-((1H-1,2,4-Triazol-1-yl)Methyl)-5-(2,4-Difluorophenyl) Tetrahydrofuran-3-yl)Methoxy)-3-Cyanophenyl)Piperazin-1-yl)-N-(4-Fluorophenyl) Benzamide] | 0.00777 (≈ 0.00539 µg/mL) | 0.0383 (≈ 0.0266 µg/mL) | > 14.4 | 84 | 90 | 85 | 0.00868 (≈ 0.00602 µg/mL) | 0.0413 (≈ 0.0287 µg/mL) | 0.0737 (≈ 0.0511 µg/mL) |  |  |  |  |  |  | 
O=C(Nc1ccc(F)cc1)c1ccc(N2CCN(c3ccc(OC[C@@H]4CO[C@@](Cn5cncn5)(c5ccc(F)cc5F)C4)c(CO)c3)CC2)cc1 [Example 16, 4-(4-(4-(((3R, 5R)-5-((1H-1,2,4-triazol-1-yl)methyl)-5-(2,4-difluorophenyl)tetrahydrofuran-3-yl)methoxy)-3-hydroxymethylphenyl)piperazin-1-yl)-N-(4-fluorophenyl)benzamide] | 0.00082 (≈ 0.000573 µg/mL) | 0.00658 (≈ 0.0046 µg/mL) | > 14.3 |  |  |  | 0.00512 (≈ 0.00358 µg/mL) | 0.00926 (≈ 0.00647 µg/mL) | 0.0335 (≈ 0.0234 µg/mL) | 76 | 62 | 91 | 88 | 85 | 96 | 
CC[C@@H]([C@H](C)O)n1ncn(-c2ccc(N3CCN(c4ccc(OC[C@@H]5CO[C@@](Cn6cncn6)(c6ccc(F)cc6F)C5)cc4)CC3)cc2)c1=O [Posaconazole, reference compound] |  |  |  | 20 | 34 | 44 |  |  |  |  |  |  |  |  |  | MIC50 ([8]; 50% inhibition by visual inspection (CLSI)): 0.13 mg/L (≈ 0.186 µM); MIC ([8]; 100% inhibition by visual inspection (CLSI), read-out: MIC100): 0.25 mg/L (≈ 0.357 µM); Median survival [9]: 6.5 days; No. of survivors on day 7 [9]: 0/6; Survivors on day 7 (%) [9]: 0%; MIC ([5]; NCPF2010, broth microdilution assay, n = 3, read-out: MIC75 against Aspergillus fumigatus isolate NCPF2010): 0.0153 µM (≈ 0.0107 µg/mL)
